# Measurements: US20200071361A1, “ENGINEERED ANTIMICROBIAL AMPHIPHILIC PEPTIDES AND METHODS OF USE” (priority 2017, published 2020)
# Legend:
# [1] = tested on: Enterococcus faecium ATCC 51559 (VRE); experiment: Broth microdilution MIC (Table 2); type: cell-based; conditions: read-out: MIC
# Experimental: (§1) Each peptide was formulated in PBS buffer prior to testing. Peptides of SEQ ID NO:5 and SEQ ID NO:8 were brought up in 100% DMSO with 0.002% polysorbate-80 at 1.28 mg/mL (40× the highest final test concentration of 32 mcg/mL). Final test concentration of DMSO was 2.5% in the assay at the first dilution for those two compounds.
# (§2) Mueller Hinton II broth (MHB II; BD; Lot Nos. 6258541 and 7143896) was used for MIC testing of aerobic organisms. 0.002% polysorbate 80 (P80) was added to the test medium.
# (§3) MIC values were determined using a broth microdilution procedure described by CLSI (1, 3). Automated liquid handlers (Multidrop 384, Labsystems, Helsinki, Finland; Biomek 2000 and Biomek FX, Beckman Coulter, Fullerton Calif.) were used to conduct serial dilutions and liquid transfers.
# (§4) To prepare the drug mother plates, which would provide the serial peptide dilutions for the replicate daughter plates, the wells of columns 2-12 of standard 96-well microdilution plates (Costar 3795) were filled with 150 μl of the designated diluent for each row of peptide. The test articles and comparator compounds (300 μl at 40× the highest concentration to be tested) were dispensed into the appropriate wells in column 1. The Biomek 2000 was then used to make 2-fold serial dilutions in the mother plates from column 1 through column 11. The wells of Column 12 contained no drug and served as the organism growth control wells for the assay.
# (§5) The daughter plates were loaded with 185 μL per well of MHB II using the Multidrop 384. The daughter plates were completed on the Biomek FX instrument which transferred 5 uL of peptide solution from each well of a mother plate to the corresponding well of each daughter plate in a single step. A standardized inoculum of each test organism was prepared per CLSI methods. The inoculum for each organism was dispensed into sterile reservoirs divided by length (Beckman Coulter), and the Biomek 2000 was used to inoculate the plates. Daughter plates were placed on the Biomek 2000 work surface in reverse orientation so that inoculation took place from low to high drug concentration. The plates were then inoculated with 10 μL of the inoculum resulting in a final cell density of approximately 5×10^5 CFU/mL, per well.
# (§6) Plates were stacked 3-4 high, covered with a lid on the top plate, placed in plastic bags, and incubated at 35° C. for 16 to 20 hrs. Following incubation, the microplates were removed from the incubator and viewed from the bottom using a plate viewer. […] The MIC was read and recorded as the lowest concentration of peptide that inhibited visible growth of the organism.
# [2] = tested on: Escherichia coli ATCC 25922 (QC); experiment: Broth microdilution MIC (Table 2); type: cell-based; conditions: ATCC25922
# Experimental: as §1, §2, §3, §4, §5, §6
# [3] = tested on: Pseudomonas aeruginosa ATCC 27853 (non-MDR; QC); experiment: Broth microdilution MIC (Table 2); type: cell-based; conditions: ATCC27853, read-out: MIC
# Experimental: as §1, §2, §3, §4, §5, §6
# [4] = tested on: Staphylococcus aureus ATCC 43300 (MRSA); experiment: Broth microdilution MIC (Table 2); type: cell-based; conditions: read-out: MIC
# Experimental: as §1, §2, §3, §4, §5, §6
# [5] = tested on: Acinetobacter spp. isolates (n = 104); experiment: Broth microdilution MIC, clinical isolate panel; type: cell-based; conditions: Acinetobacter spp. (n = 104)
# Experimental: (§7) Comparator antibiotics were supplied by Micromyx, and stock solutions were prepared on the first day of testing using solvents recommended by CLSI (1). Stock solutions of all compounds were made at 40× the final testing concentration and stored at −80° C. prior to testing. Information regarding compound source, catalog and lot number, testing concentrations and drug diluent for the comparators and test agent are detailed below in Table 3.
# (§8) The test organisms evaluated in this study consisted of clinical isolates from the Micromyx Repository and reference isolates from the American Type Culture Collection (ATCC; Manassas, Va.). The clinical isolates were obtained from USA hospitals. Upon initial receipt at Micromyx, the organisms were sub-cultured onto an appropriate agar medium. Following incubation, colonies were harvested from these plates and cell suspensions prepared and frozen at −80° C. with a cryoprotectant. Prior to testing, the isolates were streaked from frozen vials onto Trypticase Soy Agar with 5% sheep blood (Becton Dickenson [BD]; Sparks, Md.; Lot Nos. 7173618, 7166759, 7208688, 72144895, 7228505 and Remel Lenexa, Kans. Lot No. 212574). Plates were incubated at 35° C. overnight.
# (§9) Mueller Hinton II broth (MHB II; BD; Lot Nos. 6258541 and 7143896) was used for MIC testing of aerobic organisms.
# as §3
# as §4, with “drug” for “peptide”, “drug.” for “peptide.”
# as §5, with “µL” for “uL”, “drug” for “peptide”, “methods (1).” for “methods.”, “concentration.” for “concentration. The plates were then inoculated with 10 μL of the inoculum resulting in a final cell density of approximately 5×10^5 CFU/mL, per well.”
# as §6, with “drug” for “peptide”
# (§10) Clinical breakpoints to determine percent resistance within a given organism group were obtained from CLSI (3), with the exception of colistin for K. pneumoniae, Enterobacter spp., and E. coli, which are only available from EUCAST.
# [6] = tested on: Escherichia coli isolates (n = 101); experiment: Broth microdilution MIC, clinical isolate panel; type: cell-based; conditions: Escherichia coli (n = 101)
# Experimental: as §7, §8, §9, §3
# as §4, with “drug” for “peptide”, “drug.” for “peptide.”
# as §5, with “µL” for “uL”, “drug” for “peptide”, “methods (1).” for “methods.”, “concentration.” for “concentration. The plates were then inoculated with 10 μL of the inoculum resulting in a final cell density of approximately 5×10^5 CFU/mL, per well.”
# as §6, with “drug” for “peptide”
# as §10
# [7] = tested on: Klebsiella pneumoniae isolates (n = 101); experiment: Broth microdilution MIC, clinical isolate panel; type: cell-based; conditions: Klebsiella pneumoniae (n = 101)
# Experimental: as §7, §8, §9, §3
# as §4, with “drug” for “peptide”, “drug.” for “peptide.”
# as §5, with “µL” for “uL”, “drug” for “peptide”, “methods (1).” for “methods.”, “concentration.” for “concentration. The plates were then inoculated with 10 μL of the inoculum resulting in a final cell density of approximately 5×10^5 CFU/mL, per well.”
# as §6, with “drug” for “peptide”
# as §10
# [8] = tested on: Pseudomonas aeruginosa isolates (n = 109); experiment: Broth microdilution MIC, clinical isolate panel; type: cell-based; conditions: Pseudomonas aeruginosa
# Experimental: as §7, §8, §9, §3
# as §4, with “drug” for “peptide”, “drug.” for “peptide.”
# as §5, with “µL” for “uL”, “drug” for “peptide”, “methods (1).” for “methods.”, “concentration.” for “concentration. The plates were then inoculated with 10 μL of the inoculum resulting in a final cell density of approximately 5×10^5 CFU/mL, per well.”
# as §6, with “drug” for “peptide”
# as §10
# [9] = tested on: Staphylococcus aureus isolates (n = 104); experiment: Broth microdilution MIC, clinical isolate panel; type: cell-based; conditions: Staphylococcus aureus (n = 104), all methicillin-resistant
# Experimental: as §7, §8, §9, §3
# as §4, with “drug” for “peptide”, “drug.” for “peptide.”
# as §5, with “µL” for “uL”, “drug” for “peptide”, “methods (1).” for “methods.”, “concentration.” for “concentration. The plates were then inoculated with 10 μL of the inoculum resulting in a final cell density of approximately 5×10^5 CFU/mL, per well.”
# as §6, with “drug” for “peptide”
# as §10
# [10] = tested on: Enterobacter spp. isolates (n = 102); experiment: Broth microdilution MIC, clinical isolate panel; type: cell-based, Enterobacter aerogenes and E. cloacae; conditions: Enterobacter spp. (n = 102)
# Experimental: as §7, §8, §9, §3
# as §4, with “drug” for “peptide”, “drug.” for “peptide.”
# The daughter plates were loaded with 185 μL per well of MHB II using the Multidrop 384. The daughter plates were completed on the Biomek FX instrument which transferred 5 µL of drug solution from each well of a mother plate to the corresponding well of each daughter plate in a single step. […]
# Plates were stacked 3-4 high, covered with a lid on the top plate, placed in plastic bags, and incubated at 35° C. for 16 to 20 hrs. […] The MIC was read and recorded as the lowest concentration of drug that inhibited visible growth of the organism. […]
smiles,measurement,setting,value
C[C@H]1COc2c(N3CCN(C)CC3)c(F)cc3c(=O)c(C(=O)O)cn1c23 [Levofloxacin],MIC,[1],16 µg/mL
same,MIC,[2],0.015 µg/mL
same,MIC,[3],1 µg/mL
same,MIC,[4],0.25 µg/mL
same,MIC50,[5],8 µg/mL
same,"% R (percent of isolates resistant, clinical breakpoints)",[6],~50%
same,MIC50,[6],4 µg/mL
same,"% R (percent of isolates resistant, clinical breakpoints)",[7],over 60%
same,MIC50,[8],1 µg/mL
same,MIC,[8]; read-out: Mode (MIC),0.25 µg/mL
same,"% R (percent of isolates resistant, clinical breakpoints)",[9],Over 80%
same,MIC50,[9],8 µg/mL
same,"% R (percent of isolates resistant, clinical breakpoints)",[10],4.9%
